Experimental data: paper PMC2699545 (Molecular genetics and metabolism, 2009)
Each block holds one molecule with its values, some of them ahead of it.

Key:
[1] = molecular target: T1, N370 (wild-type) GCase (Homo sapiens, UniProt P04062); assay: GCase inhibition by active site-directed inhibitors, 4MU-Glc substrate; type: biochemical
T1 sequence (P04062 40-536): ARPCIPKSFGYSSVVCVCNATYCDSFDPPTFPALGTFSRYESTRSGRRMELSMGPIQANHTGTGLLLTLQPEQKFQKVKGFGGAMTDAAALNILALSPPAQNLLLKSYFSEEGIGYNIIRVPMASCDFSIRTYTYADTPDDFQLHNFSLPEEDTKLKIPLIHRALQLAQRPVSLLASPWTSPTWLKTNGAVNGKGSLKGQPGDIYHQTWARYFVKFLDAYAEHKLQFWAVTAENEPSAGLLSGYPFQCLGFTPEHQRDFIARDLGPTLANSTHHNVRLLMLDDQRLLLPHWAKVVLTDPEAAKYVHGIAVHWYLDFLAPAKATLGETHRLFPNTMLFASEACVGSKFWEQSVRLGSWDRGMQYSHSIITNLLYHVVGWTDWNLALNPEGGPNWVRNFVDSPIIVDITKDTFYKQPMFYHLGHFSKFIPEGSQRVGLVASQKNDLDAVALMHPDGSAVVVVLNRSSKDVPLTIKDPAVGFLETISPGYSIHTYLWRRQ

[2] = molecular target: T2, N370D GCase (Homo sapiens, UniProt P04062, N409D); assay: as above; type: biochemical
T2 sequence (P04062 40-536 N409D): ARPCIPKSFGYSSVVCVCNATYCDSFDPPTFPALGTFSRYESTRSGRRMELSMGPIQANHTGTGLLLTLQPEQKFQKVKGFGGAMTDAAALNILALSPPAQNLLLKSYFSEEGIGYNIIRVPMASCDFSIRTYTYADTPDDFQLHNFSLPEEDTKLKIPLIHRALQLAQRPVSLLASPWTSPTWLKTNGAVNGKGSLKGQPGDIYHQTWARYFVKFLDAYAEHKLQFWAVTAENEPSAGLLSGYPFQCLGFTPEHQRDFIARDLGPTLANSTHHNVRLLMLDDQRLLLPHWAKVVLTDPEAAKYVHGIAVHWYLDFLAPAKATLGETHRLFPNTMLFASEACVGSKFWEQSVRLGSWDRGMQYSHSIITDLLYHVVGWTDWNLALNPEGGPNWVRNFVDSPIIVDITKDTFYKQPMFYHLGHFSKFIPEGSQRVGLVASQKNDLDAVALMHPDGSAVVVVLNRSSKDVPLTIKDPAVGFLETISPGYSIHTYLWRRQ

[3] = molecular target: T3, N370S GCase (Homo sapiens, UniProt P04062, N409S); assay: as above; type: biochemical
T3 sequence (P04062 40-536 N409S): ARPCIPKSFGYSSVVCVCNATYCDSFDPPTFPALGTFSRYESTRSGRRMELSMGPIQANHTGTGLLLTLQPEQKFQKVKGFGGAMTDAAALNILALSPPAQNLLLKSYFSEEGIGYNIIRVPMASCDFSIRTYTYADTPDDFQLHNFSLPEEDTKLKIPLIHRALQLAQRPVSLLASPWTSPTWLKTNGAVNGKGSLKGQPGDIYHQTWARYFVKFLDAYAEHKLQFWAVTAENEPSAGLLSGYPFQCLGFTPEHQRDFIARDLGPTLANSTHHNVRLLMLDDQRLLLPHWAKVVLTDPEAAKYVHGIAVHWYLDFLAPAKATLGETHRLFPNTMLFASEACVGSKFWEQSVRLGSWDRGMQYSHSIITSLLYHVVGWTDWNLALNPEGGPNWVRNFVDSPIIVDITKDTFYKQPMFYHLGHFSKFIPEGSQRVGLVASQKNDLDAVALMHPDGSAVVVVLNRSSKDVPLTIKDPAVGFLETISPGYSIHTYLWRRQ

[4] = molecular target: T4, N370E GCase (Homo sapiens, UniProt P04062, N409E); assay: as above; type: biochemical
T4 sequence (P04062 40-536 N409E): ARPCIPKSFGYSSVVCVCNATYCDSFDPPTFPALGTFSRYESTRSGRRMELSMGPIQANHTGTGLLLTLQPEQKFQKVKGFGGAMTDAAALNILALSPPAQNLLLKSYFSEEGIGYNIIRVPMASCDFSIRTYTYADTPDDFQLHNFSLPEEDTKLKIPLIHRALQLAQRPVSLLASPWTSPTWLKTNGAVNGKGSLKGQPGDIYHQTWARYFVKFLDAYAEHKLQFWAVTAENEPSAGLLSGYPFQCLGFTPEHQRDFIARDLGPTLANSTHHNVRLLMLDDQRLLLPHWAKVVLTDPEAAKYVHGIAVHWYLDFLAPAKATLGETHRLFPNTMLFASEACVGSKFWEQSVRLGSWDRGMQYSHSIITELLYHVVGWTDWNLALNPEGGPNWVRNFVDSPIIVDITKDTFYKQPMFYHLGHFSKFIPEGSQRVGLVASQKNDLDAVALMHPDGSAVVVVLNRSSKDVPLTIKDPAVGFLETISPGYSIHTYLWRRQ

[5] = molecular target: T5, N370Q GCase (Homo sapiens, UniProt P04062, N409Q); assay: as above; type: biochemical
T5 sequence (P04062 40-536 N409Q): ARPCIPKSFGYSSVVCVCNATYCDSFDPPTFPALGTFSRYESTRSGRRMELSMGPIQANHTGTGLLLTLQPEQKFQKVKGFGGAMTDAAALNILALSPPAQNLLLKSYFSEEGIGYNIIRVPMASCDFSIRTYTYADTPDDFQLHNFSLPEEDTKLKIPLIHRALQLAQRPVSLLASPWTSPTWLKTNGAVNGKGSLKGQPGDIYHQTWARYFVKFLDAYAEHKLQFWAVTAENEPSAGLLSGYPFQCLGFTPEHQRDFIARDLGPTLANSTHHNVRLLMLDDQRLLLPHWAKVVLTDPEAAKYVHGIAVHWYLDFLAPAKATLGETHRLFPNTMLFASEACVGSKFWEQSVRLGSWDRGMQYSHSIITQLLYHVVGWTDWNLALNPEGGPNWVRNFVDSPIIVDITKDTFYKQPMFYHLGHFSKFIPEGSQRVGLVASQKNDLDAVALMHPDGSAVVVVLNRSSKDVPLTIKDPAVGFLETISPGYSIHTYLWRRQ

[6] = system: all active enzymes (wild-type and mutant GCases); assay: Km for 4MU-Glc from Lineweaver-Burk plots; type: biochemical, human
[7] = molecular target: T6, E235G GCase (Homo sapiens, UniProt P04062, E274G); assay: E235G hydrolysis of alternative substrates, with or without azide; type: biochemical; conditions: for E235G activity toward substrate compared to wild-type enzyme: TC (4.25 mM) as activator, no azide
T6 sequence (P04062 40-536 E274G): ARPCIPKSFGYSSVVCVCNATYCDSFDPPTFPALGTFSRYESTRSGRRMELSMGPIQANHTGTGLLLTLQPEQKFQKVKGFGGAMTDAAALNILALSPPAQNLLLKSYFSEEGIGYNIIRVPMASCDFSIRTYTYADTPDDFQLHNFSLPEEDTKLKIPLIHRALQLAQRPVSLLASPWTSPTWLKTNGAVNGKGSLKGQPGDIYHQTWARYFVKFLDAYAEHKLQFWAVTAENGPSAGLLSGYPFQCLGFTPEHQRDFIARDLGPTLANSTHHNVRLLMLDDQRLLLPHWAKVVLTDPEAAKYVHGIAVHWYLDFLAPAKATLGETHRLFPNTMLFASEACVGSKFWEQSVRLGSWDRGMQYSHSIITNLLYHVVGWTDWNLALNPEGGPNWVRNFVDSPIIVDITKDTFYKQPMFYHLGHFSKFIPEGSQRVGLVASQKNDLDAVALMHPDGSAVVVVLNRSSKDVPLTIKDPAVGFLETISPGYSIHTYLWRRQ

[8] = system: N370, N370D, N370E and N370S enzymes; assay: Km for DNPG; type: biochemical, human; conditions: same for all the mutants (Fig. 4 legend)
[9] = molecular target: T1, N370 (wild-type) GCase; assay: Enzyme activation by TC or saposin C
[10] = molecular target: T2, N370D GCase; assay: Enzyme activation by TC or saposin C
[11] = molecular target: T3, N370S GCase; assay: Enzyme activation by TC or saposin C
[12] = molecular target: T4, N370E GCase; assay: Enzyme activation by TC or saposin C
[13] = molecular target: T5, N370Q GCase; assay: Enzyme activation by TC or saposin C
[14] = molecular target: wild-type GCase (Homo sapiens, UniProt P04062); conditions: azide at 1:4 molar ratio enzyme to azide; DNPG
[15] = TC 0 to 8 mM, Triton X-100 4 mM, pH 5.6
[16] = in combination with 0.5 μM BPS, pH 5.5

IC50 [1]: 73 ± 3 µM
IC50 [2]: 72 ± 2 µM
IC50 [3]: 251 ± 29 µM
IC50 [4]: 78 ± 4 µM
IC50 [5]: 75 ± 2.5 µM
Molecule: O[C@H]1[C@H](O)[C@@H](O)[C@@H]2O[C@@H]2[C@@H]1O (racemic) [Conduritol B Epoxide, conduritol B epoxide]

Molecule: Cc1cc(=O)oc2cc(O[C@@H]3O[C@H](CO)[C@@H](O)[C@H](O)[C@H]3O)ccc12 [4MU-Glc, 4-methylumbelliferyl-β-D-glucoside]
Km [6]: 2000 ± 500 µM
E235G activity toward substrate compared to wild-type enzyme [7]: less than 0.05%

Molecule: O=[N+]([O-])c1ccc(O[C@@H]2O[C@H](CO)[C@@H](O)[C@H](O)[C@H]2O)c([N+](=O)[O-])c1 [DNPG, 2,4-dinitrophenyl-β-D-glucoside]
Km [8]: 108 ± 17 µM
E235G activity toward substrate compared to wild-type enzyme [7]: ~ 2%

Molecule: C[C@H](CCC(=O)NCCS(=O)(=O)O)[C@H]1CC[C@H]2[C@@H]3[C@H](O)C[C@@H]4C[C@H](O)CC[C@]4(C)[C@H]3C[C@H](O)[C@]12C [TC, Sodium taurocholate]
fold activation by TC ([9]; wild-type, TC 0 to 8 mM, Triton X-100 4 mM, pH 5.6): ~ 25 fold
fold activation by TC [10, 15]: ~ 22 fold
fold activation by TC ([11]; TC ≥ 4 mM, Triton X-100 4 mM, pH 5.6): ~ 35 fold
fold activation by TC [12, 15]: ~ 8 fold
fold activation by TC [13, 15]: ~ 1.5 fold

Molecule: [N-]=[N+]=[N-].[Na+] [azide, sodium azide]
hydrolytic rate of 2,4-DNP-β-glucose by E235G relative to wild-type ([7]; 10 μM azide (Fig. 6A)): 95%
hydrolytic rate of DNPG by E235G relative to wild-type enzyme ([7]; 1:4 molar ratio of enzyme to azide): ~ 90%
effect of azide on wild-type enzyme activity [14]: no effect

Molecule: O=[N+]([O-])c1ccccc1O[C@@H]1O[C@H](CO)[C@H](O)[C@H](O)[C@H]1O [o-NPG, o-nitrophenyl-β-glucose]
E235G activity toward substrate compared to wild-type enzyme [7]: less than 0.05%

Molecule: O=[N+]([O-])c1ccc(O[C@@H]2O[C@H](CO)[C@H](O)[C@H](O)[C@H]2O)cc1 [p-NPG, p-nitrophenyl-β-glucose]
E235G activity toward substrate compared to wild-type enzyme [7]: less than 0.05%

fold enhancement by saposin C ([9]; N370 (WT), in combination with 0.5 μM BPS, pH 5.5): ~ 3.5 fold
fold enhancement by saposin C [10, 16]: 1.8 fold
fold enhancement by saposin C [11, 16]: ~ 2.4 fold
fold enhancement by saposin C [12, 16]: 1.8 fold
enhancement by saposin C [13, 16]: no effect
B1: saposin C: protein cofactor of GCase for optimal hydrolytic activity (protein, UniProt P07602 311-390, looked up)
Saposin-C: SDVYCEVCEFLVKEVTKLIDNNKTEKEILDAFDKMCSKLPKSLSEECQEVVDTYGSSILSILLEEVSPELVCSMLHLCSG
modifications: Saposin-C
